This data set concerns CYP. The data set is described as follows: Inhibition of CYP. The data set is classed as in vitro ADME. From the text:
Overt reactive oxygen species (ROSs) can be produced due to noise and certain ototoxic drugs that can damage the hair cells of the ear, resulting in either temporary or permanent hearing loss. Exposure to blast waves and continuous noise not only damaged the inner ear, but caused cell death in the hippocampus, suppressed neurogenesis and impaired memory function. Aging as well can manifest in mitochondrial dysfunction leading to hearing loss. It is emerging that attempts to treat hearing loss by targeting downstream issues is not very effective. In one embodiment, the compositions and methods of the invention relate to targeting oxidative stress upstream at the mitochondria that may be causative for many disorders. There have been a variety of attempts to lower cellular stress, such as administering anti-oxidants, however these drugs have limited tissue penetration into the brain and lower ROSs after they have been formed. […] While not being bound to theory, it is postulated that DNP modulates the mitochondrial membrane potential having a significant impact at preventing ROS formation in isolated mitochondria and in the treated wildtype mice. DNP treatment 3-hours post-ischemia reduced cerebral infarct volume 40% by protecting the penumbra or “threaten tissue” and could provide similar benefits after a blast to protect inner hair cells from eminent cell death. […]

For the compound `O=[N+]([O-])c1ccc(O)c([N+](=O)[O-])c1` [2,4-DNP, 2,4-dinitrophenol], the “inhibition to CYP” value is “no inhibition”.
